Broadly, the IC50 is the concentration that gives 50% inhibition.

The text below walks through data of patent publication US6132697A, “Radiopharmaceutical compositions capable of localizing at sites of thrombus” (G. D. Searle & Co., priority 1997, dated 2000).

A short description of series [1]: Biodistribution in rat model (radioactivity in organs, excretion). The format is in vivo, Sprague-Dawley rats. Here is the method: This study was designed to evaluate the biodistribution pattern of the compound of Example 2 to determine the clearance profile from blood, route of excretion and in vivo stability of the complex by HPLC analysis of urine samples, in a rat model.
The compound of Example 2 was injected ([…], 1.5-3.5 mCi/mL) into Sprague-Dawley rats. Groups of three animals were sacrificed at the time points indicated below to determine the amount of radioactivity remained in the organs. Results: (to be filled)
The compound of Example 7 was injected ([…], 1.5-3.5 mCi/mL) into Sprague-Dawley rats. Groups of three animals were sacrificed at the time points indicated below to determine the amount of radioactivity (%ID/g) remaining in the organs.
The compound of Example 12 was injected into Sprague-Dawley rats according to the procedure outlined in Example 5. The amount of radioactivity present in the major excretionary organs at different time points (1, 4 and 24 hours) are given below.
The compound of Example 19 was injected into Sprageue-Dawley rats according to the procedure outlined earlier. The amount of radioactivity present in the major excretionary organs at different time points (1, 4 and 24 hours) are given below.
The compound of Example 26 was injected ([…], 1.5-3.5 mCi/mL) into Sprague-Dawley rats. Groups of three animals were sacrificed at the time points indicated below to determine the amount of radioactivity remaining in the organs.

Series [2] has as its system pulmonary emboli (PE) and/or deep vein thrombus (DVT). Description: Canine model for pulmonary embolism / deep vein thrombus (embolization coils). It counts as in vivo, dog. To be noted: sacrifice at 3 hours. The method, then: These studies are designed to serve as a preliminary screen of various radiolabeled pharmaceuticals for the purpose of imaging pulmonary emboli (PE) and/or deep vein thrombus (DVT).
Procedure: The dog is first anesthetized with an intravenous injection of sodium pentobarbital (30 mg/kg). An IV catheter is placed into the jugular vein and advanced to the pulmonary artery. Visualization of the catheter placement is facilitated using fluoroscopy. Embolization coils of various sizes (3-8 mm) are next released via the catheter using the appropriate guide wire, and localization of the coils is followed by fluoroscopy. After a satisfactory number of coils (3-5) have been placed and visualized, the catheter is removed and the vein ligated. The formation of a deep vein thrombus (DVT) in the saphenous vein is facilitated by the placement of a 16 gauge needle into the vein followed by the passage of a 5 mm embolization coil through the needle directly into the vein.
IV injection (cephalic vein) of the radiolabeled test article occurs approximately 30-45 minutes post placement of the embolization coils. Approximate activity injected is 2.5-3.5mCi. Beginning at 30 minutes post injection and continuing for several hours at 30 minute intervals, the animal is scintigraphed in both the lateral and supine positions.
At the conclusion of the imaging portion of the study (3 hours) the animal is sacrificed, and selected tissues removed for scintillation counting. The coils are located, removed and quantitated for uptake of the radiotracer. From these values is determined the target:non-target ratios and blood clearance of the test article.
The compound of claim 19 was administered to a canine according to the general protocol described in Example 16.

The next series addresses T1, GPIIb/IIIa receptors (Homo sapiens, UniProt P05106+P08514).
T1 construct: endogenous in cells; host or cells: platelets in platelet rich plasma from healthy volunteer donors
Description: ADP induced platelet aggregation inhibition assay in platelet rich plasma. The format is cell-based. As to conditions: read-out: IC50 (half-maximal inhibition of platelet aggregation). Here is the method:
This Example describes Platelet Aggregation Inhibition Assays of the compound of Example 2 to illustrate that the compound binds to GPIIb/IIIa receptors when radiolabelled.
Healthy aspirin free donors were randomly selected from a pool of volunteers. The harvesting of platelet rich plasma and subsequent ADP induced platelet aggregation assays were performed as described in Zucker, M. B. "Platelet Aggregation Measured by the Photometric Method", Methods in Enzymology 169 (1989):117-133. Standard venipuncture techniques using butterfly allowed the withdrawal of 45 mL of whole blood into a 60 mL syringe containing 5 mL 3.8% trisodium citrate. Following thorough mixing in the syringe, the anti-coagulated whole blood was transferred to a 50 mL conical polyethylene tube. The blood was centrifuged at room temperature for 12 minutes at 200xg to sediment non-platelet cells. Platelet poor plasma was obtained from a second centrifugation of the remaining blood at 2000xg for 15 minutes. Platelet counts are typically 300,000 to 500,000 per microliter. […] Aggregation was recorded for 3 minutes in a Payton dual channel aggregometer (Payton Scientific, Buffalo, N.Y.). […] The compounds were tested in duplicate and half-maximal inhibition (IC50) was calculated graphically from the dose response curve. […]

T1 sequence (P08514 32-887 limits assumed): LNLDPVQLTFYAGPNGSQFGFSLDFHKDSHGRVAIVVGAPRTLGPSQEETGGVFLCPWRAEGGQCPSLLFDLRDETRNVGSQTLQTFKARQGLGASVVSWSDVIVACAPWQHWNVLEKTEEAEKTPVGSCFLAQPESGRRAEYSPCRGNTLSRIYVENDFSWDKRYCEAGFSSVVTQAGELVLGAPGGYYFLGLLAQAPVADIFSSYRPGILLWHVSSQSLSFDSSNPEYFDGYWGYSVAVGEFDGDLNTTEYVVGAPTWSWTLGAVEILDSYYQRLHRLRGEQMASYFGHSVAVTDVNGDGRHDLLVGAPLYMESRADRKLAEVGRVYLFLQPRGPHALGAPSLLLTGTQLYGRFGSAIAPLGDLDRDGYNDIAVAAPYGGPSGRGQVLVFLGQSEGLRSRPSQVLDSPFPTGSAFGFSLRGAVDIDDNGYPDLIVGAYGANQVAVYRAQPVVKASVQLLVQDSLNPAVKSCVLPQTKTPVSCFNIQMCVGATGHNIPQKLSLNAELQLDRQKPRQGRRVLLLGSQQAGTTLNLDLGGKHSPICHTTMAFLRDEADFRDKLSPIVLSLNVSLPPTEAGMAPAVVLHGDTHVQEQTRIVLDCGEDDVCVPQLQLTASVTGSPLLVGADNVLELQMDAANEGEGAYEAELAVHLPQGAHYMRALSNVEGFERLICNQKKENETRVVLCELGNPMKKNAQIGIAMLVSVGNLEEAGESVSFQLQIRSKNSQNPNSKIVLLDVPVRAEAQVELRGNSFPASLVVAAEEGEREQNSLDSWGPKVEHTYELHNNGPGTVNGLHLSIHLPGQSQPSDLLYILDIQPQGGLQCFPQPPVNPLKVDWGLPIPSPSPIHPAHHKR
T1 sequence (P08514 891-1039 partner limits assumed): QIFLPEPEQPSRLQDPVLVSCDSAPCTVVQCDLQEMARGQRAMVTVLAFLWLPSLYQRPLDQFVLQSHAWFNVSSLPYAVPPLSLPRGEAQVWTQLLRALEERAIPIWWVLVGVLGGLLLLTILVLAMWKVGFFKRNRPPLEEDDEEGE
T1 sequence (P05106 27-788): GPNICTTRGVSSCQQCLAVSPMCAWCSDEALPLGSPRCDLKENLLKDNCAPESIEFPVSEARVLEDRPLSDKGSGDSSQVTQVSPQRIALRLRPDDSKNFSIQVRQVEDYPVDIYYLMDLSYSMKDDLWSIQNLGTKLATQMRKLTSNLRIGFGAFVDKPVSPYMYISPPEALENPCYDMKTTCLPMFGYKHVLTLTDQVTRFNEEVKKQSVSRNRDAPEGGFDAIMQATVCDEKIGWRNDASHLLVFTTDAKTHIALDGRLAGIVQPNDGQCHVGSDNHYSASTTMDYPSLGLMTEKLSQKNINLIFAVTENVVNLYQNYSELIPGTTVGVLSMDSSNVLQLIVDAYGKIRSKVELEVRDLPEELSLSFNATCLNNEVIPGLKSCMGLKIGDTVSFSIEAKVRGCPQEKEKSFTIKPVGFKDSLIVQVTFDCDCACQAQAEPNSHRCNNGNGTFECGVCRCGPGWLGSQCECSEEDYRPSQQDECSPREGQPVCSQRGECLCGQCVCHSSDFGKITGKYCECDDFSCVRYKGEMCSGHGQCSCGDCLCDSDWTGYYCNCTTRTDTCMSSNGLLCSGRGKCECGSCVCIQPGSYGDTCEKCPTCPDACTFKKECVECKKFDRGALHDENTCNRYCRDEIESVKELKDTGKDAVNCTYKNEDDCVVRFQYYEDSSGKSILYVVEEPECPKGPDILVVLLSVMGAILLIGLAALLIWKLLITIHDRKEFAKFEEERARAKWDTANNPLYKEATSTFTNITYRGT

Turning to `CN(C)CC[N]1C(=O)C(CCC(=O)O)[N]2C(=O)C(CCCC(=O)NCCCCC(NC(=O)C(CC(=O)O)NC(=O)CCC(=O)Nc3ccc(C(=N)N)cc3)C(=O)O)[N]3C(=O)C[S][99Tc-]132=[O]` (centres unmarked) [Example 26], in series [1] (1 hour), the “radioactivity in organ: Blood” value is reported as 0.067 % ID/g, the “radioactivity in organ: Kidney” value worked out at 0.628 % ID/g, the “radioactivity in organ: Liver” value worked out at 0.043 % ID/g and the “radioactivity in organ: Sml. Int & Contents” value is 0.206 % ID/g. Besides, in series [1] (4 hours), the “radioactivity in organ: Blood” value worked out at 0.011 % ID/g, the “radioactivity in organ: Kidney” value is listed as 0.536 % ID/g, the “radioactivity in organ: Liver” value is recorded as 0.015 % ID/g and the “radioactivity in organ: Sml. Int & Contents” value was determined as 0.031 % ID/g. Also, in series [1] (24 hours), the “radioactivity in organ: Blood” value came out at 0.007 % ID/g, the “radioactivity in organ: Kidney” value is on record as 0.227 % ID/g, the “radioactivity in organ: Liver” value turned out to be 0.014 % ID/g and the “radioactivity in organ: Sml. Int & Contents” value is 0.009 % ID/g. Further, in series [1], the “% ID excreted in the feces at 24 hr.” value was found to be 16.277 % ID and the “% ID excreted in the urine at 24 hr.” value is on record as 54.708 % ID.

As to `CN(C)CC[N]1C(=O)C(CCC(=O)O)[N]2C(=O)C(CCCCNC(=O)CCNC(=O)C(CC(=O)O)NC(=O)CCC(=O)Nc3ccc(C(=N)N)cc3)[N]3C(=O)C[S][99Tc-]132=[O]` (centres unmarked) [Example 19], the “radioactivity in organ: Blood” value in series [1] (1 hour) is 0.067 % ID/g; in series [1] (4 hours) it was 0.011 % ID/g; in series [1] (24 hours) it was 0.004 % ID/g. Also, the results for the “radioactivity in organ: Kidney” value in series [1] (1 hour), in series [1] (4 hours) and in series [1] (24 hours) were 0.864 % ID/g, 0.520 % ID/g and 0.241 % ID/g, respectively. Moreover, the “radioactivity in organ: Liver” value is reported as 0.158 % ID/g in series [1] (1 hour), 0.024 % ID/g in series [1] (4 hours) and 0.009 % ID/g in series [1] (24 hours). The “radioactivity in organ: Sml. Int & Contents” value came out at 0.645 % ID/g in series [1] (1 hour), 0.015 % ID/g in series [1] (4 hours) and 0.002 % ID/g in series [1] (24 hours). Also, in series [1], the “% ID excreted in the feces at 24 hr.” value was found to be 32.758 % ID. Also, the “% ID excreted in the urine at 24 hr.” value in series [1] stood at 41.217 % ID. Further, the “% ID/g” value is listed as 0.0018 % ID/g in series [2] (Blood); 0.0828 % ID/g in series [2] (Clot 1 (DVT)); 0.0114 % ID/g in series [2] (Clot 2 (PE)); 0.125 % ID/g in series [2] (Clot 3 (PE)); 0.142 % ID/g in series [2] (Clot 4 (PE)); 0.1232 % ID/g in series [2] (Clot 5 (PE)). The Clot/blood in series [2] (Clot 1 (DVT)) is recorded as 43; in series [2] (Clot 2 (PE)), 6; in series [2] (Clot 3 (PE)), 65; in series [2] (Clot 4 (PE)), 74; in series [2] (Clot 5 (PE)), 64.

Consider `CN(C)CCNC(=O)C(CCC(=O)O)NC(=O)C(CCCCNC(=O)CCNC(=O)C(CC(=O)O)NC(=O)CCC(=O)Nc1ccc(C(=N)N)cc1)NC(=O)CSC1CCCCO1` [Example 18, ABAS-L-Asp-β-Ala-ε-L-Lys(α-S-THP-mercaptoacetyl)-Glu-dme], for which the IC50 at GPIIb/IIIa receptors worked out at 0.49 µM.

As to `CN(C)CC[N]1C(=O)C(CCC(=O)O)[N]2C(=O)C(CCCC(=O)NCCCCC(NC(=O)C(CC(=O)O)NC(=O)CCC(=O)Nc3ccc(C(=N)N)cc3)C(=O)O)[N]3C(=O)C[S][TcH]132=[O]` (centres unmarked) [Example 26], the IC50 at GPIIb/IIIa receptors came to 0.29 µM.
